Experimental data reported in paper PMC166128 (BMC Infectious Diseases, 2003).
Where two headings read alike, the source gives them in different places.

What was measured:
[1] = tested on: VV, VSV, HSV-1, HSV-2, Coxsackie virus B4 and poliovirus-1; settings: cited from earlier work
vaccinia virus WR strain [2] = format: cell-based; settings: 16 h
CV-1 cells = assay: Cytostatic activity; settings: CV-1 cells seeded at 3.5 × 10^3 cells/well; 24 h incubation; cells counted
vaccinia virus WR strain [3] = format: cell-based
vaccinia virus = format: cell-based
[4] = tested on: vaccinia virus IHD-J (EEV); format: cell-based
HeLa S3 cells = assay: Cell proliferation assay, 3H-thymidine uptake; settings: 2 days + 16 h, single experiment
[5] = tested on: vaccinia virus Western Reserve (WR) strain; format: cell-based
[6] = tested on: vaccinia virus International Health Department-J (IHD-J) strain; format: cell-based
cowpox = settings: read-out: EC50 (cowpox); cited from earlier work
monkeypox = settings: read-out: EC50 (monkeypox); cited from earlier work
vaccinia = settings: read-out: EC50 (vaccinia); cited from earlier work
camelpox = settings: read-out: EC50 (camelpox); cited from earlier work

| Compound | % inhibition (vaccinia virus WR strain [2]; 25 µg/mL) | titer (vaccinia virus WR strain [2]; 25 µg/mL) | % inhibition (vaccinia virus WR strain [2]; 50 µg/mL) | titer (vaccinia virus WR strain [2]; 50 µg/mL) | CC50 Cytostatic activity (CV-1 cells) | % inhibition (vaccinia virus WR strain [3]; 25 µg/mL) | titer (vaccinia virus WR strain [3]; 25 µg/mL) | % inhibition (vaccinia virus WR strain [3]; 50 µg/mL) | titer (vaccinia virus WR strain [3]; 50 µg/mL) | % inhibition (vaccinia virus; 25 µg/mL) | titer (vaccinia virus; 25 µg/mL) | % inhibition (vaccinia virus; 50 µg/mL) | titer (vaccinia virus; 50 µg/mL) | EC50 IHD-J (EEV) CV-1 [4] | CC50 Cell proliferation (HeLa S3 cells) | other results |
| --- | --- | --- | --- | --- | --- | --- | --- | --- | --- | --- | --- | --- | --- | --- | --- | --- |
| Fe meso-tetrakis(3,4-disulfonatomesityl)porphyrin [FeTMPS] |  |  |  |  |  |  |  |  |  |  |  |  |  |  |  | EC50s for VV, VSV, HSV-1, HSV-2, Coxsackie virus B4 and poliovirus-1 [1]: ≥ 20 µg/mL |
| sulfonated 5,10,15,20-tetra-naphthalen-1-yl-porphyrin [TNapPS] | 73 ± 16% | 3.5 × 10^5 pfu/mL | 92 ± 1% | 1.0 × 10^5 pfu/mL | 400 µg/mL | 98% | 3.5 × 10^5 pfu/mL | 98% | 2.6 × 10^5 pfu/mL | 87 ± 5% | 3.3 × 10^4 pfu/mL | 95 ± 2% | 1.3 × 10^4 pfu/mL | 1.0 ± 0.1 µg/mL |  |  |
| copper hematoporphyrin [CuHPIX] | 33 ± 9% | 1.3 × 10^6 pfu/mL | 71 ± 4% | 6.3 × 10^5 pfu/mL |  | 93% | 1.1 × 10^6 pfu/mL | 97% | 4.5 × 10^5 pfu/mL | 80 ± 2% | 5.0 × 10^4 pfu/mL | 91 ± 2% | 2.3 × 10^4 pfu/mL | 1.1 ± 0.4 µg/mL | 36 µg/mL | EC50 WR BSC-40 [5]: 0.03 ± 0.01 µg/mL; EC50 WR CV-1 [5]: 7.8 ± 0.9 µg/mL; EC50 IHD-J CV-1 [6]: 1.5 ± 0.4 µg/mL; EC50 IHD-J (EEV) BSC-40 [4]: 0.32 ± 0.13 µg/mL |
| O=C(O)c1ccc(-c2c3nc(c(-c4ccc(C(=O)O)cc4)c4ccc([nH]4)c(-c4ccc(C(=O)O)cc4)c4nc(c(-c5ccc(C(=O)O)cc5)c5ccc2[nH]5)C=C4)C=C3)cc1 [TPPC, meso-tetra(4-carboxyphenyl)porphyrin] |  |  |  |  |  |  |  |  |  |  |  |  |  |  |  | EC50s for VV, VSV, HSV-1, HSV-2, Coxsackie virus B4 and poliovirus-1 [1]: ≥ 20 µg/mL |
| sulfonated copper phthalocyanine [CuPcS(3444)] | 49 ± 21% | 9.3 × 10^5 pfu/mL | 59 ± 2% | 8.3 × 10^5 pfu/mL | > 1000 µg/mL | 60% | 6.3 × 10^6 pfu/mL | 74% | 4.1 × 10^6 pfu/mL | 92 ± 3% | 2.1 × 10^4 pfu/mL | 90 ± 2% | 2.4 × 10^4 pfu/mL | 8.2 ± 1.3 µg/mL | > 500 µg/mL | EC50 IHD-J CV-1 [6]: 14 ± 5.3 µg/mL; EC50 IHD-J (EEV) BSC-40 [4]: 50 ± 7 µg/mL |
| Nc1ccn(C[C@@H](CO)OCP(=O)(O)O)c(=O)n1 [cidofovir] |  |  |  |  |  |  |  |  |  |  |  |  |  |  |  | EC50 (cowpox): 58 µM; EC50 (monkeypox): 27 µM; EC50 (vaccinia): 46.2 µM; EC50 (camelpox): 2.3 µM |
| C=CC1=C(C)c2cc3[n-]c(cc4nc(cc5[n-]c(cc1n2)c(C)c5C=C)C(C)=C4CCC(=O)O)c(CCC(=O)O)c3C.[Zn+2] [ZnPPIX, zinc protoporphyrin] | 65 ± 0.3% | 7.2 × 10^5 pfu/mL | 70 ± 4% | 6.4 × 10^5 pfu/mL | 370 µg/mL | 98% | 2.5 × 10^5 pfu/mL | 99% | 1.0 × 10^5 pfu/mL | 92 ± 1% | 2.1 × 10^4 pfu/mL | 99 ± 7% | 3.2 × 10^3 pfu/mL | 38 ± 7.8 µg/mL | 25 µg/mL | EC50 WR CV-1 [5]: 15 ± 12 µg/mL |
